Measurements from ChEMBL document CHEMBL1201862, “PubChem BioAssay data set” (2004).
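Interpolation was linear, between the two tested concentrations surrounding the appropriate level; five concentrations were tested over 48 hours in 96-well plates. At the GI50, growth is halved.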 The source made the active and inactive calls. Cut-off read from the data, not from the text of the source: active = GI50 up to about 1.1 µM and inactive = higher.

Legend:
Assay in all cases: NCI tumour cell line growth inhibition, 48 h
A498 = tested on: A498
DU-145 = tested on: DU-145
HCC 2998 = tested on: HCC 2998
HCT-15 = tested on: HCT-15
IGROV-1 = tested on: IGROV-1
M14 = tested on: M14
MDA-MB-435 = tested on: MDA-MB-435
MDA-N = tested on: MDA-N
NCI-H460 = tested on: NCI-H460
NCI/ADR-RES = tested on: NCI/ADR-RES
OVCAR-3 = tested on: OVCAR-3
OVCAR-4 = tested on: OVCAR-4
RPMI-8226 = tested on: RPMI-8226
RXF 393 = tested on: RXF 393
SF-295 = tested on: SF-295
SF-539 = tested on: SF-539
SN12C = tested on: SN12C
TK-10 = tested on: TK-10
UACC-257 = tested on: UACC-257
UO-31 = tested on: UO-31

Row | Structure (SMILES) | GI50 (A498) | GI50 (DU-145) | GI50 (HCC 2998) | GI50 (HCT-15) [µM] | GI50 (IGROV-1) | GI50 (M14) | GI50 (MDA-MB-435) | GI50 (MDA-N) | GI50 (NCI-H460) | GI50 (NCI/ADR-RES) | GI50 (OVCAR-3) | GI50 (OVCAR-4) | GI50 (RPMI-8226) | GI50 (RXF 393) | GI50 (SF-295) | GI50 (SF-539) | GI50 (SN12C) | GI50 (TK-10) | GI50 (UACC-257) | GI50 (UO-31)
1 | COc1ccc(/C=C/c2ccnc3ccccc23)c(OC)c1 | 7.87 µM (inactive) | > 10 µM (inactive) | 6.82 µM (inactive) | 6.49 | 7.87 µM (inactive) | > 10 µM (inactive) | 2.36 µM (inactive) | 3.41 µM (inactive) | 6.05 µM (inactive) | 3.86 µM (inactive) | > 10 µM (inactive) | > 10 µM (inactive) | 7.33 µM (inactive) | > 10 µM (inactive) | 6.18 µM (inactive) | 4.34 µM (inactive) | > 10 µM (inactive) | > 10 µM (inactive) | > 10 µM (inactive) | > 10 µM (inactive)
2 | Clc1cc(OCc2nn3c(Cc4ccccc4)nnc3s2)c(Cl)cc1OCc1nn2c(Cc3ccccc3)nnc2s1 | 30.5 µM (inactive) | 47.1 µM (inactive) | > 100 µM (inactive) | 7.05 | 36 µM (inactive) | > 100 µM (inactive) | > 100 µM (inactive) | 79.4 µM (inactive) | > 100 µM (inactive) | 16 µM (inactive) | 33.3 µM (inactive) | 50 µM (inactive) | 8.89 µM (inactive) | 17 µM (inactive) | 31.3 µM (inactive) | 42.2 µM (inactive) | > 100 µM (inactive) | 29.9 µM (inactive) | > 100 µM (inactive) | 47.8 µM (inactive)
3 | CCN(CC)Cc1c(/C=C\c2cc(OC)c(OC)c(OC)c2)ccc(OC)c1O | 6.22 µM (inactive) | 3.72 µM (inactive) | 3.73 µM (inactive) | 2.71 | 4.2 µM (inactive) | 2.79 µM (inactive) | 0.264 µM (active) | 0.387 µM (active) | 3.48 µM (inactive) | 2.16 µM (inactive) | 2.08 µM (inactive) | 12.3 µM (inactive) | 3 µM (inactive) | 2.04 µM (inactive) | 2.03 µM (inactive) | 2.29 µM (inactive) | 5.3 µM (inactive) | 9.4 µM (inactive) | 16.8 µM (inactive) | 6.14 µM (inactive)
4 | CC(=O)OC/C=C(\C)CCC(Br)C(C)(C)Br (stereo not given) | > 10 µM (inactive) | > 10 µM (inactive) | > 10 µM (inactive) | > 10 | > 10 µM (inactive) | > 10 µM (inactive) | > 10 µM (inactive) | > 10 µM (inactive) | > 10 µM (inactive) | > 10 µM (inactive) | > 10 µM (inactive) | > 10 µM (inactive) | > 10 µM (inactive) | > 10 µM (inactive) | > 10 µM (inactive) | > 10 µM (inactive) | > 10 µM (inactive) | > 10 µM (inactive) | > 10 µM (inactive) | 0.001 µM (active)
5 | N#Cc1c(Cl)cc(Cl)n2c1nc1ccccc12 | 22 µM (inactive) | 14.3 µM (inactive) | 2.51 µM (inactive) | 3.43 | 8.05 µM (inactive) | 8.53 µM (inactive) | 11.5 µM (inactive) | 10.1 µM (inactive) | 8 µM (inactive) | 12.6 µM (inactive) | 6 µM (inactive) | 10.4 µM (inactive) | 4.27 µM (inactive) | 13.2 µM (inactive) | 17.3 µM (inactive) | 4.47 µM (inactive) | 15.3 µM (inactive) | 6.68 µM (inactive) | 10.3 µM (inactive) | 3.63 µM (inactive)
6 | O=Cc1ccc(-c2nccc3c2[nH]c2ccccc23)o1 | 0.585 µM (active) | > 100 µM (inactive) | > 91.6 µM (inactive) | > 100 | > 73.3 µM (inactive) | 91.6 µM (inactive) | > 100 µM (inactive) | > 100 µM (inactive) | 38.9 µM (inactive) | > 100 µM (inactive) | > 75.7 µM (inactive) | 89.5 µM (inactive) | > 81.8 µM (inactive) | 22.2 µM (inactive) | 20.4 µM (inactive) | > 100 µM (inactive) | > 100 µM (inactive) | 7.36 µM (inactive) | 24.5 µM (inactive) | > 100 µM (inactive)
7 | C=C(C)[C@H]1C=C[C@@H](OC(=O)c2cccnc2)[C@@]23CO[C@@](C)([C@H](OC(=O)c4cccnc4)[C@@]4(OC(C)=O)C[C@H](C)[C@H](OCCC)[C@@H]4[C@H]2OC(C)=O)[C@H]13 | > 15 µM (inactive) | > 15 µM (inactive) | > 15 µM (inactive) | > 15 | > 15 µM (inactive) | 12.7 µM (inactive) | 9.68 µM (inactive) | 10.7 µM (inactive) | 4.94 µM (inactive) | > 15 µM (inactive) | > 15 µM (inactive) | 10.3 µM (inactive) | 9.95 µM (inactive) | > 15 µM (inactive) | 13.4 µM (inactive) | > 15 µM (inactive) | > 15 µM (inactive) | > 15 µM (inactive) | > 15 µM (inactive) | > 15 µM (inactive)
8 | O=C1OCOC2(CCCC2)C1c1ccccc1 (stereo not given) | > 100 µM (inactive) | > 100 µM (inactive) | > 100 µM (inactive) | > 100 | > 100 µM (inactive) | > 100 µM (inactive) | > 100 µM (inactive) | > 100 µM (inactive) | > 100 µM (inactive) | > 100 µM (inactive) | > 100 µM (inactive) | > 100 µM (inactive) | > 100 µM (inactive) | > 100 µM (inactive) | > 100 µM (inactive) | > 100 µM (inactive) | > 100 µM (inactive) | > 100 µM (inactive) | > 100 µM (inactive) | > 100 µM (inactive)
9 | Cn1c(N2CCCC2)c(C=O)c(=O)n(C)c1=O | > 100 µM (inactive) | > 100 µM (inactive) | > 100 µM (inactive) | > 100 | > 100 µM (inactive) | > 100 µM (inactive) | > 100 µM (inactive) | > 100 µM (inactive) | > 100 µM (inactive) | > 100 µM (inactive) | > 100 µM (inactive) | > 100 µM (inactive) | > 100 µM (inactive) | > 100 µM (inactive) | > 100 µM (inactive) | > 100 µM (inactive) | > 100 µM (inactive) | > 100 µM (inactive) | > 100 µM (inactive) | > 100 µM (inactive)
10 | Cc1ccccc1S(=O)(=O)OC1NS(=O)(=O)c2ccccc21 (stereo not given) | > 100 µM (inactive) | > 100 µM (inactive) | > 100 µM (inactive) | > 100 | > 100 µM (inactive) | > 100 µM (inactive) | > 100 µM (inactive) | > 100 µM (inactive) | > 100 µM (inactive) | > 100 µM (inactive) | > 100 µM (inactive) | > 100 µM (inactive) | > 100 µM (inactive) | > 100 µM (inactive) | > 100 µM (inactive) | > 100 µM (inactive) | > 100 µM (inactive) | > 100 µM (inactive) | > 100 µM (inactive) | > 100 µM (inactive)
11 | C=C(C)[C@@H]1CC[C@]2(C(=O)O)CC[C@]3(C)[C@H](CC[C@@H]4[C@@]5(C)CC[C@H](O)C(C)(C)[C@@H]5CC[C@]43C)[C@@H]12 [BETULINIC ACID] | 6.08 µM (inactive) | 9.71 µM (inactive) | 6.31 µM (inactive) | 8.67 | 11.9 µM (inactive) | 10.3 µM (inactive) | 13.7 µM (inactive) | 16.7 µM (inactive) | 7.28 µM (inactive) | 7.23 µM (inactive) | 2.61 µM (inactive) | 5.83 µM (inactive) | 7.36 µM (inactive) | 2.64 µM (inactive) | 7.71 µM (inactive) | 4.03 µM (inactive) | 10.8 µM (inactive) | 14.8 µM (inactive) | 6.03 µM (inactive) | 11 µM (inactive)
